In paper PMC12678337, “EAR-20 peptide, a novel NMDA receptor positive allosteric modulator” (Frontiers in Pharmacology, 2025):
Several values for one entry are separate records, joined by “and”; a condition that tells them apart may be missing. Equal values may be shown once. No end group written: not given here.

How the values were obtained:
[1] = target: T1, GluN1-GluN2C (Rattus norvegicus, UniProt P35439+Q00961); assay type: cell-based
T1 construct: HA (N); expressed in transfected cells; host or cells: HEK-293T

[2] = target: T2, GluN1-GluN2B (Rattus norvegicus, UniProt P35439+Q00960); assay type: cell-based
T2 construct: GFP (N); expressed in transfected cells; host or cells: HEK-293T

[3] = target: T2, GluN1-GluN2B; assay type: cell-based; remark: listed apart in the source
[4] = target: T3, GluN1-GluN2A (Rattus norvegicus, UniProt P35439+Q00959); assay type: cell-based
T3 construct: GFP (N); expressed in transfected cells; host or cells: HEK-293T (single-channel: HEK293)

[5] = target: T4, GluN1-GluN2D (Rattus norvegicus, UniProt P35439+Q62645); assay type: cell-based
T4 construct: HA (N); expressed in transfected cells; host or cells: HEK-293T

[6] = target: T5, GluN1/GluN2A-V820I (Rattus norvegicus, UniProt P35439+Q00959, V820I); assay type: cell-based
T5 construct: GFP (N); expressed in transfected cells; host or cells: HEK-293T

[7] = target: T2, GluN1-GluN2B; experiment: cell-based
[8] = target: T3, GluN1-GluN2A; assay type: cell-based; remark: listed apart in the source
[9] = target: T3, GluN1-GluN2A; experiment: cell-based

T2 sequence (Q00960 27-1482, other chains not shown): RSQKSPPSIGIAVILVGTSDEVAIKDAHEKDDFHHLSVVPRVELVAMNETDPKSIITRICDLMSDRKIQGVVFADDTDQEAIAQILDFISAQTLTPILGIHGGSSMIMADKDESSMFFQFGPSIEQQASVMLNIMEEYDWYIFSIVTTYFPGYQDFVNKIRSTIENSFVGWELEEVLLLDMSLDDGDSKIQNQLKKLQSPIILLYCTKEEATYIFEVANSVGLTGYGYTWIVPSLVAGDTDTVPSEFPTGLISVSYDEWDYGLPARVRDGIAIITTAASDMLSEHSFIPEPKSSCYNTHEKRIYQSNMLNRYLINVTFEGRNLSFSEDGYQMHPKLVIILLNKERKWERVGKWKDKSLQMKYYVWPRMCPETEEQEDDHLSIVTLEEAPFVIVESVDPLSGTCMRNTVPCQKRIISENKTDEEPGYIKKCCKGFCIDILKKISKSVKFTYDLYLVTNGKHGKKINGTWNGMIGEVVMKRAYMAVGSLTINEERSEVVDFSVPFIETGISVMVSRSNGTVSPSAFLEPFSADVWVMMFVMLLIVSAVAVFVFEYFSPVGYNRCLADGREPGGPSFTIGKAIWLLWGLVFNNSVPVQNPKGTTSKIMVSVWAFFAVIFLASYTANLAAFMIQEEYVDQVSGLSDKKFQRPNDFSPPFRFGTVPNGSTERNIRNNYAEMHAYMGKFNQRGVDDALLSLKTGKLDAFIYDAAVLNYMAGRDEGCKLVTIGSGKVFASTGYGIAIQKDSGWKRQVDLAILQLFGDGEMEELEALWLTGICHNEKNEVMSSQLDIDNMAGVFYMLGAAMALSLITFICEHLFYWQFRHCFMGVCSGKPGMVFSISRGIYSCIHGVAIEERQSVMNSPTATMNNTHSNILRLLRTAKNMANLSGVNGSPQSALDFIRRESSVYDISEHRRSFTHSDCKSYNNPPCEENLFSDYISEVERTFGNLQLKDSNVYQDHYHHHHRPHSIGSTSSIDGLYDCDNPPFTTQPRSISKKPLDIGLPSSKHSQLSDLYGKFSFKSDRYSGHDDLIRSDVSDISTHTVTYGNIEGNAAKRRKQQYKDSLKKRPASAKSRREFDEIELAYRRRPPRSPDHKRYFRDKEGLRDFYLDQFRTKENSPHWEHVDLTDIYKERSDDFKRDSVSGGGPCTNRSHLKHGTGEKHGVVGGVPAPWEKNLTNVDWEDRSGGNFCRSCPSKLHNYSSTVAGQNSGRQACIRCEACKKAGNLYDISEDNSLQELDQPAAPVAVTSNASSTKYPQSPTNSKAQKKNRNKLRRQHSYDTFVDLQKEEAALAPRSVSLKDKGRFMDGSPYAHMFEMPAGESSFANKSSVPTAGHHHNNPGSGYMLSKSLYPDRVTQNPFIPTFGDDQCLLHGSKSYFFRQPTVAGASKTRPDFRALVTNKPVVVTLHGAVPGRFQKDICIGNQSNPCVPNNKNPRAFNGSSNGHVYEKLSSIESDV
T1 sequence (Q00961 20-1237, other chains not shown): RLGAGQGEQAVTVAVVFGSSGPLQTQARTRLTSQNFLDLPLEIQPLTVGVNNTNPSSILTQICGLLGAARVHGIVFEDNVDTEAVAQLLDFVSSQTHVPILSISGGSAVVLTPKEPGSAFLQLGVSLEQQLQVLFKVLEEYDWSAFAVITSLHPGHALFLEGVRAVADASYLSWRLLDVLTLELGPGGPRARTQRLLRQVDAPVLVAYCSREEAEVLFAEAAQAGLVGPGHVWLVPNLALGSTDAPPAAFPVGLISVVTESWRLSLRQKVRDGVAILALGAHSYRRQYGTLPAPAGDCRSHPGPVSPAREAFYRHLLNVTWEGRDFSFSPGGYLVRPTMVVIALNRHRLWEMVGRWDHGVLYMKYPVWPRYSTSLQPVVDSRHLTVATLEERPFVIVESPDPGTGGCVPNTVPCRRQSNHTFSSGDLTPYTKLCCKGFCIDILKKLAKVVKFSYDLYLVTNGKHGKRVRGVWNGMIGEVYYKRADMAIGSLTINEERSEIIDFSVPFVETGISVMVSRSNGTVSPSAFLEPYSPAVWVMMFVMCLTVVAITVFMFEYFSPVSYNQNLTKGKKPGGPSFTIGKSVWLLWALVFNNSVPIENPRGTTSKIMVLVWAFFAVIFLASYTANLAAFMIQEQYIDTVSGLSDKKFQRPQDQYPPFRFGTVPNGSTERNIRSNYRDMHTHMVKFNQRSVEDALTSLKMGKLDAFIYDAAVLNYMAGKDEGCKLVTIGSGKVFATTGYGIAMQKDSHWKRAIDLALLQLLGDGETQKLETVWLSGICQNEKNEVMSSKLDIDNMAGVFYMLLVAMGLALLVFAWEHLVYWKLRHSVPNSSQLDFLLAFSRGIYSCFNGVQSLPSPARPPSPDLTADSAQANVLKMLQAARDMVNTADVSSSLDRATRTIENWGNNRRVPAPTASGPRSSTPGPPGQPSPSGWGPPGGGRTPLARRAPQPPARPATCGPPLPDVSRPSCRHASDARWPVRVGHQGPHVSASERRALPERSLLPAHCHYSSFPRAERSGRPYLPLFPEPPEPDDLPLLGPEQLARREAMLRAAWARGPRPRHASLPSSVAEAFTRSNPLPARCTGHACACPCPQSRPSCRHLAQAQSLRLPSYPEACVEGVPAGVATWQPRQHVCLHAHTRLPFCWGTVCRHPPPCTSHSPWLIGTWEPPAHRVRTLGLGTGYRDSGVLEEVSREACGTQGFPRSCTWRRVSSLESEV
T3 sequence (Q00959 23-1464, other chains not shown): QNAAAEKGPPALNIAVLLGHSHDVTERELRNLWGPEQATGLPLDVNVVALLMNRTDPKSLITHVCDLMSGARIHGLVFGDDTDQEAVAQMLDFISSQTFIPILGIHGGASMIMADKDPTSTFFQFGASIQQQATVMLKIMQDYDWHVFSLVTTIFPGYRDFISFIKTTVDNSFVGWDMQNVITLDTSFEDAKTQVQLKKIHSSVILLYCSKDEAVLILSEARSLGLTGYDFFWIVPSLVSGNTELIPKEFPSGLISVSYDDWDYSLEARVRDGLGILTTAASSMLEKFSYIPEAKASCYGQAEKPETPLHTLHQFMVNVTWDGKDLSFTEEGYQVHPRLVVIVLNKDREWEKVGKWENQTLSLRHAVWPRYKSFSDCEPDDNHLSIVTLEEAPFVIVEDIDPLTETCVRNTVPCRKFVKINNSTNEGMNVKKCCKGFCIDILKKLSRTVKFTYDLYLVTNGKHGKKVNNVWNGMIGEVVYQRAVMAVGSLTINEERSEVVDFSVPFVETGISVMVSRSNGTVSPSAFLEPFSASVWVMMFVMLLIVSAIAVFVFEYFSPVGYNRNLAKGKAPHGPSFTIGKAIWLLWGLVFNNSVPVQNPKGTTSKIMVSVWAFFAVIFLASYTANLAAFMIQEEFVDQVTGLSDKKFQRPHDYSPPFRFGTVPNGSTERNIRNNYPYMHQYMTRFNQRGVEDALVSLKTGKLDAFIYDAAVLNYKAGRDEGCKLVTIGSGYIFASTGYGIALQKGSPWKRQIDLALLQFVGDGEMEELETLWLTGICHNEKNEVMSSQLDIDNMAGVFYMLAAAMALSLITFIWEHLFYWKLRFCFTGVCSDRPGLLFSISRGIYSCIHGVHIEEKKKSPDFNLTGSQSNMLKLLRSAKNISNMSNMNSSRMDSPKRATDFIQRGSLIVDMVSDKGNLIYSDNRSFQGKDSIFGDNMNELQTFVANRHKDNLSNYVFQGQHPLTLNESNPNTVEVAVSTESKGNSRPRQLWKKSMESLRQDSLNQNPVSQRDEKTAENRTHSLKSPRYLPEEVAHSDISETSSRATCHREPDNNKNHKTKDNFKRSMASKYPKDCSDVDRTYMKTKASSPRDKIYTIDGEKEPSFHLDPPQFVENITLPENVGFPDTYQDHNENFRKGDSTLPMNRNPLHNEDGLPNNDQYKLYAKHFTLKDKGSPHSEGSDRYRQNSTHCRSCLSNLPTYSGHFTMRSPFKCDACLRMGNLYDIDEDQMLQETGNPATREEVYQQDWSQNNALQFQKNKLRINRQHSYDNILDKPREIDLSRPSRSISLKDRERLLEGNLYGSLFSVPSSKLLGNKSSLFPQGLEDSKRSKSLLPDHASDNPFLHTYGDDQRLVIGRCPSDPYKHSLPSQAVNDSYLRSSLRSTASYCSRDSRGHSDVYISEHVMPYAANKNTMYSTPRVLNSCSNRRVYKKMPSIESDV

## KLGMRSELQIDNDQDAD [EAR-20]
[1]
  peak current potentiation: −8.04% ± 7.48%
  steady-state current potentiation: 23.31% ± 7.6% and ~25%
[2]
  peak current potentiation: 102.6% ± 24.02%
  potentiation by EAR-20: 136.8% ± 19.6%
  steady-state current potentiation: 137.9% ± 21.0% and 137.9% and 143.7% ± 26.8%
[3]
  maximal agonist activity relative to glutamate plus glycine: 12.18% ± 6.9%
  response in the presence of glutamate, % of glutamate plus glycine response: 38.33% ± 17.1%
  response in the presence of glycine, % of glutamate plus glycine response: 43.22% ± 18.1%
[4]
  peak current potentiation: 15.68% ± 6.19% and 15.68% ± 6.16%
  steady-state current potentiation: 154.3% ± 19.0% and 154.3% and 153.3% ± 19.9%
[5]
  peak current potentiation: 4.97% ± 2.63%
  steady-state current potentiation: 102.45% ± 11.1%
[6]
  steady-state potentiation: 146.6% ± 37.8%
[7]
  EC50: 42.2 µM
[8]
  agonistic activity relative to glutamate plus glycine: 13.31% ± 6.5%
[9]
  EC50: 88.7 µM
